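Grown in 96-well plates, cells were treated for 48 hours with each compound at five concentrations. Insufficient inhibition: endpoint recorded as highest concentration tested. GI50 marks 50% less growth. TGI denotes the concentration required for complete inhibition of growth.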
Tests used:
Assay in all cases: NCI anticancer screen, dose series, 48 h
NCI-H460 lung = test system: NCI-H460 lung
SF-295 CNS = test system: SF-295 CNS
SK-MEL-2 melanoma = test system: SK-MEL-2 melanoma
A498 renal = test system: A498 renal
SF-268 CNS = test system: SF-268 CNS
TK-10 renal = test system: TK-10 renal
BT-549 breast = test system: BT-549 breast
UACC-257 melanoma = test system: UACC-257 melanoma
OVCAR-4 ovarian = test system: OVCAR-4 ovarian
MALME-3M melanoma = test system: MALME-3M melanoma
786-0 renal = test system: 786-0 renal
SR leukemia = test system: SR leukemia
SW-620 colon = test system: SW-620 colon
SNB-75 CNS = test system: SNB-75 CNS
OVCAR-3 ovarian = test system: OVCAR-3 ovarian
SF-539 CNS = test system: SF-539 CNS
T-47D breast = test system: T-47D breast
UACC-62 melanoma = test system: UACC-62 melanoma
SK-MEL-28 melanoma = test system: SK-MEL-28 melanoma
SNB-19 CNS = test system: SNB-19 CNS
MOLT-4 leukemia = test system: MOLT-4 leukemia
SK-OV-3 ovarian = test system: SK-OV-3 ovarian
MDA-MB-468 breast = test system: MDA-MB-468 breast
ACHN renal = test system: ACHN renal
DU-145 prostate = test system: DU-145 prostate
RPMI-8226 leukemia = test system: RPMI-8226 leukemia
HOP-92 NSCLC = test system: HOP-92 NSCLC
EKVX NSCLC = test system: EKVX NSCLC
SN12C renal = test system: SN12C renal
NCI-H23 lung = test system: NCI-H23 lung
K-562 leukemia = test system: K-562 leukemia
A549 NSCLC = test system: A549 NSCLC
PC-3 prostate = test system: PC-3 prostate
MDA-MB-231 breast = test system: MDA-MB-231 breast
NCI/ADR-RES ovarian = test system: NCI/ADR-RES ovarian
HT29 colon = test system: HT29 colon
OVCAR-8 ovarian = test system: OVCAR-8 ovarian
NCI-H226 lung = test system: NCI-H226 lung
HOP-62 NSCLC = test system: HOP-62 NSCLC
MDA-MB-435 = test system: MDA-MB-435
COLO 205 colon = test system: COLO 205 colon
OVCAR-5 ovarian = test system: OVCAR-5 ovarian
NCI-H522 lung = test system: NCI-H522 lung
MCF7 breast = test system: MCF7 breast
CAKI-1 renal = test system: CAKI-1 renal
KM12 colon = test system: KM12 colon
LOX IMVI melanoma = test system: LOX IMVI melanoma
U251 CNS = test system: U251 CNS
M14 melanoma = test system: M14 melanoma
HL-60(TB) leukemia = test system: HL-60(TB) leukemia
RXF 393 renal = test system: RXF 393 renal
IGROV1 ovarian = test system: IGROV1 ovarian
HCT-116 colon = test system: HCT-116 colon
HS 578T breast = test system: HS 578T breast
HCT-15 colon = test system: HCT-15 colon
SK-MEL-5 melanoma = test system: SK-MEL-5 melanoma
CCRF-CEM leukemia = test system: CCRF-CEM leukemia
UO-31 renal = test system: UO-31 renal
HCC-2998 colon = test system: HCC-2998 colon

What does the source list for `COc1ccc(CCN2C(=O)/C(=C/c3csc(C#N)n3)SC2=S)cc1OC`?
GI50 (NCI-H460 lung): 17.4 µM; TGI (NCI-H460 lung): 38.7 µM; GI50 (SF-295 CNS): 83.8 µM; TGI (SF-295 CNS): > 100 µM; GI50 (SK-MEL-2 melanoma): 13.3 µM; TGI (SK-MEL-2 melanoma): 28.6 µM; GI50 (A498 renal): 18.6 µM; TGI (A498 renal): 68 µM; GI50 (SF-268 CNS): 12.2 µM; TGI (SF-268 CNS): 27 µM; GI50 (TK-10 renal): 3.13 µM; TGI (TK-10 renal): 10.3 µM; GI50 (BT-549 breast): 11.4 µM; TGI (BT-549 breast): 24.2 µM; GI50 (UACC-257 melanoma): 11 µM; TGI (UACC-257 melanoma): 34 µM; GI50 (OVCAR-4 ovarian): 11.4 µM; TGI (OVCAR-4 ovarian): 32.9 µM; GI50 (MALME-3M melanoma): 11.9 µM; TGI (MALME-3M melanoma): 29.7 µM; GI50 (786-0 renal): 5.56 µM; TGI (786-0 renal): 18.9 µM; GI50 (SR leukemia): 2.46 µM; TGI (SR leukemia): 8.72 µM; GI50 (SW-620 colon): 3.15 µM; TGI (SW-620 colon): 11.7 µM; GI50 (SNB-75 CNS): 22.6 µM; TGI (SNB-75 CNS): > 100 µM; GI50 (OVCAR-3 ovarian): 4.99 µM; TGI (OVCAR-3 ovarian): 18 µM; GI50 (SF-539 CNS): 12.5 µM; TGI (SF-539 CNS): 25 µM; GI50 (T-47D breast): 3.22 µM; TGI (T-47D breast): 20.6 µM; GI50 (UACC-62 melanoma): 11.5 µM; TGI (UACC-62 melanoma): 23.9 µM; GI50 (SK-MEL-28 melanoma): 12.1 µM; TGI (SK-MEL-28 melanoma): 25.3 µM; GI50 (SNB-19 CNS): 20.7 µM; TGI (SNB-19 CNS): 54 µM; GI50 (MOLT-4 leukemia): 3.94 µM; TGI (MOLT-4 leukemia): 25.4 µM; GI50 (SK-OV-3 ovarian): 66.8 µM; TGI (SK-OV-3 ovarian): > 100 µM; GI50 (MDA-MB-468 breast): 2.67 µM; TGI (MDA-MB-468 breast): 14.9 µM; GI50 (ACHN renal): 13.4 µM; TGI (ACHN renal): 31.4 µM; GI50 (DU-145 prostate): 2.96 µM; TGI (DU-145 prostate): 10.5 µM; GI50 (RPMI-8226 leukemia): 3.03 µM; TGI (RPMI-8226 leukemia): 19.9 µM; GI50 (HOP-92 NSCLC): 2.12 µM; TGI (HOP-92 NSCLC): 8.56 µM; GI50 (EKVX NSCLC): 22.2 µM; TGI (EKVX NSCLC): 60 µM; GI50 (SN12C renal): 11.9 µM; TGI (SN12C renal): 26.4 µM; GI50 (NCI-H23 lung): 14.6 µM; TGI (NCI-H23 lung): 28 µM; GI50 (K-562 leukemia): 2.97 µM; TGI (K-562 leukemia): 15.5 µM; GI50 (A549 NSCLC): 35 µM; TGI (A549 NSCLC): > 100 µM; GI50 (PC-3 prostate): 15.6 µM; TGI (PC-3 prostate): 37.9 µM; GI50 (MDA-MB-231 breast): 12 µM; TGI (MDA-MB-231 breast): 28.8 µM; GI50 (NCI/ADR-RES ovarian): 16.3 µM; TGI (NCI/ADR-RES ovarian): 35.7 µM; GI50 (HT29 colon): 13.5 µM; TGI (HT29 colon): 27.6 µM; GI50 (OVCAR-8 ovarian): 15.4 µM; TGI (OVCAR-8 ovarian): 30.5 µM; GI50 (NCI-H226 lung): 15.8 µM; TGI (NCI-H226 lung): 41.5 µM; GI50 (HOP-62 NSCLC): 22 µM; TGI (HOP-62 NSCLC): 69.6 µM; GI50 (MDA-MB-435): 13.6 µM; TGI (MDA-MB-435): 29.3 µM; GI50 (COLO 205 colon): 21.6 µM; TGI (COLO 205 colon): 87.5 µM; GI50 (OVCAR-5 ovarian): 21.2 µM; TGI (OVCAR-5 ovarian): 69.5 µM; GI50 (NCI-H522 lung): 2.68 µM; TGI (NCI-H522 lung): 13.5 µM; GI50 (MCF7 breast): 3.3 µM; TGI (MCF7 breast): 15.7 µM; GI50 (CAKI-1 renal): 16.5 µM; TGI (CAKI-1 renal): 33.3 µM; GI50 (KM12 colon): 3.71 µM; TGI (KM12 colon): 15.2 µM; GI50 (LOX IMVI melanoma): 2.9 µM; TGI (LOX IMVI melanoma): 10.6 µM; GI50 (U251 CNS): 14.8 µM; TGI (U251 CNS): 29.9 µM; GI50 (M14 melanoma): 13.8 µM; TGI (M14 melanoma): 49.1 µM; GI50 (HL-60(TB) leukemia): 14.6 µM; TGI (HL-60(TB) leukemia): 40.1 µM; GI50 (RXF 393 renal): 3.56 µM; TGI (RXF 393 renal): 12.6 µM; GI50 (IGROV1 ovarian): 18.2 µM; TGI (IGROV1 ovarian): 41.7 µM; GI50 (HCT-116 colon): 4.55 µM; TGI (HCT-116 colon): 16.9 µM; GI50 (HS 578T breast): 19.8 µM; TGI (HS 578T breast): 72.9 µM; GI50 (HCT-15 colon): 5.3 µM; TGI (HCT-15 colon): 20.9 µM; GI50 (SK-MEL-5 melanoma): 13.6 µM; TGI (SK-MEL-5 melanoma): 28.8 µM; GI50 (CCRF-CEM leukemia): 3.38 µM; TGI (CCRF-CEM leukemia): 11.4 µM; GI50 (UO-31 renal): 5.08 µM; TGI (UO-31 renal): 23.9 µM; GI50 (HCC-2998 colon): 15.3 µM; TGI (HCC-2998 colon): 29.9 µM
